Laboratory results from US12122802B2, “D-allose crystal and production method thereof” (MATSUTANI CHEMICAL INDUSTRY CO., LTD., priority 2019, dated 2024).

Experiments:
Format in all cases: physicochemical
[1] = aspect ratio of crystals from microscopic picture (Digital microscope VHX-5000, 50x)
Description: The “anhydrous D-allose crystals” of the present invention have an extremely large average particle size as described above and are not in a fine needle form, having a characteristic aspect ratio of the crystal. In the present invention, the aspect ratio refers to the ratio of the long diameter to the short diameter of a crystal (short diameter: minimum length of lines passing through the center of gravity of the plane shape of a crystal, long diameter: maximum length of a crystal measured orthogonal to the short diameter). In the present specification, the aspect ratio in a numerical range from A to B (A and B: arbitrary numbers) means that all of the aspect ratios of a specified number (preferably at least 10, for example 10) of crystal particles randomly selected are within the numerical range. Example of random selection of crystal particles includes a method comprising taking a microscopic picture of crystals at 20× to 50× magnification and, from the crystals on the diagonal line drawn from the upper left to the lower right of the microscopic picture taken, selecting 10 crystals with a full body shown in order from the upper left on the diagonal line. Specifically, the aspect ratio is preferably 1.0 to 10.0, more preferably 2.0 to 8.0, still more preferably 2.0 to 7.0. Next, the aspect ratio of the anhydrous D-allose crystals of the present invention was examined. Specifically, a microscopic picture of each of the anhydrous D-allose crystals obtained in the previous Test Nos. 1 to 5, 7 to 10 and 12 were taken using “Digital microscope VHX-5000” manufactured by KEYENCE Corporation (50×magnification). Among the crystals on the diagonal line drawn from the upper left to the lower right of the microscopic picture taken, 10 crystals with a full picture shown were selected in order from the upper left and then the long diameter and the short diameter of each crystal were measured for calculation of the aspect ratio (Long diameter/Short diameter, wherein short diameter refers to minimum length of lines passing through the center of gravity of the plane shape of a crystal, and long diameter refers to maximum length of a crystal measured orthogonal to the short diameter). The minimum value of the aspect ratio was 1.1 and the maximum value was 9.6 (Table 9).

[2] = repose angle measured by powder tester PT-E (fluidity of anhydrous D-allose crystals); conditions: anhydrous crystals of Test Nos. 1 to 12, hydrous crystals dried with evaporator (30° C., 20 hPa (abs), about 2 hours), average of three directions
Procedure: The fluidity of the anhydrous D-allose crystals obtained by drying the hydrous crystals obtained in each of Tests Nos. 1 to 12 with an evaporator (30° C., 20 hPa (abs), about 2 hours) as described above was evaluated by the repose angle measured by a powder tester PT-E (manufactured by Hosokawa Micron Corporation). Specifically, a sample was dropped and deposited on a disk, and the inclination angle was measured from three directions to obtain an average value. From the average value, the degree of fluidity was evaluated according to Table 1 in the Japanese Pharmacopoeia, 17th edition, Reference Information G2 physical property-related “Powder Fluidity” (same as the so-called Carr's fluidity index table, shown as Table 4).
In order to measure the water content in the crystals obtained by each of the drying methods, drying under reduced pressure under conditions at 70° C. for 18 hours was performed to calculate the water content in the crystals from the weight loss through the drying under reduced pressure. The repose angle was measured by the method described above to determine the degree of fluidity. The yield rate was calculated by the following expression. Yield rate (%)=(D/C)×100 [Expression 4]

[3] = particle size distribution by laser diffraction (Mastersizer 3000, dry dispersion unit Aero S); conditions: average of 5 measurements, dispersion pressure 1.0 bar
Description: The melting point (Tm) in the DSC refers to the melting start temperature of the endothermic peak obtained by DSC measurement (temperature at the extrapolated intersection of the base line and the maximum slope line of the endothermic peak), and the melting enthalpy (ΔH) refers to the area of the endothermic peak (ASTM D3418-15, Standard Test Method for Transition Temperatures and Enthalpies of Fusion and Crystallization of Polymers by Differential Scanning calorimetry). Further, in the present invention, the average particle size refers to the volume-based average particle size d[4,3], which is usually measured with a laser diffraction particle size distribution analyzer.
Next, the particle size distribution of the anhydrous D-allose crystals of the present invention was examined. Specifically, the anhydrous D-allose crystals obtained in the previous Test Nos. 1 to 5, 7 to 10 and 12, were subjected to measurement of particle size distribution under the measurement conditions shown in Table 7 using “Mastersizer 3000” and a “dry dispersion unit Aero S” manufactured by Malvern Instruments. More specifically, the measurement was repeated 5 times, and the average value of the 5 times measurements was used. No great variability was seen among the 5 times measurement values. The particle size distribution was expressed on a volume basis, and the volume-based average particle size d[4,3] and standard deviation σ were recorded. Also, the coefficient of variation CV=σ/d[4,3] was calculated in order to relatively evaluate the variation in the particle size distribution.

With `O=C[C@H](O)[C@H](O)[C@H](O)[C@H](O)CO` [Test No. 2, D-allose] the “Aspect ratio (Long diameter/Short diameter)” value ([1]; crystal ① of 10 selected, listed as 2) was 2.9, the “Aspect ratio (Long diameter/Short diameter)” value ([1]; crystal ② of 10 selected, listed as 2) was 3.0 and the “Aspect ratio (Long diameter/Short diameter)” value ([1]; crystal ③ of 10 selected, listed as 2) was 3.5. The “Aspect ratio (Long diameter/Short diameter)” value ([1]; crystal ④ of 10 selected, listed as 2) was 3.5, the “Aspect ratio (Long diameter/Short diameter)” value ([1]; crystal ⑤ of 10 selected, listed as 2) was 3.0 and the “Aspect ratio (Long diameter/Short diameter)” value ([1]; crystal ⑥ of 10 selected, listed as 2) was 5.5. The “Aspect ratio (Long diameter/Short diameter)” value ([1]; crystal ⑦ of 10 selected, listed as 2) was 2.6, the “Aspect ratio (Long diameter/Short diameter)” value ([1]; crystal ⑧ of 10 selected, listed as 2) was 4.9 and the “Aspect ratio (Long diameter/Short diameter)” value ([1]; crystal ⑨ of 10 selected, listed as 2) was 3.0. For the same compound, the “Aspect ratio (Long diameter/Short diameter)” value ([1]; crystal ⑩ of 10 selected, listed as 2) was 4.1, the “Repose angle (degrees)” value ([2]; listed as 2) was 42.7 degrees and the “d [4, 3] (volume-based average particle size)” value ([3]; listed as 2) was 563 μm.
In the case of `O=C[C@H](O)[C@H](O)[C@H](O)[C@H](O)CO` [Test No. 12, D-allose], the “Aspect ratio (Long diameter/Short diameter)” value ([1]; crystal ① of 10 selected, listed as 12) is reported as 3.1, the “Aspect ratio (Long diameter/Short diameter)” value ([1]; crystal ② of 10 selected, listed as 12) is reported as 3.3 and the “Aspect ratio (Long diameter/Short diameter)” value ([1]; crystal ③ of 10 selected, listed as 12) is reported as 4.2. The “Aspect ratio (Long diameter/Short diameter)” value ([1]; crystal ④ of 10 selected, listed as 12) was 3.8, the “Aspect ratio (Long diameter/Short diameter)” value ([1]; crystal ⑤ of 10 selected, listed as 12) was 3.6 and the “Aspect ratio (Long diameter/Short diameter)” value ([1]; crystal ⑥ of 10 selected, listed as 12) was 4.4. The “Aspect ratio (Long diameter/Short diameter)” value ([1]; crystal ⑦ of 10 selected, listed as 12) was 4.7, the “Aspect ratio (Long diameter/Short diameter)” value ([1]; crystal ⑧ of 10 selected, listed as 12) was 3.7 and the “Aspect ratio (Long diameter/Short diameter)” value ([1]; crystal ⑨ of 10 selected, listed as 12) was 3.7. For the same compound, the “Aspect ratio (Long diameter/Short diameter)” value ([1]; crystal ⑩ of 10 selected, listed as 12) was 1.3, the “Repose angle (degrees)” value ([2]; listed as 12) was 41.3 degrees and the “d [4, 3] (volume-based average particle size)” value ([3]; listed as 12) was 333 μm.
In the case of `O=C[C@H](O)[C@H](O)[C@H](O)[C@H](O)CO` [Test No. 5, D-allose], the “Aspect ratio (Long diameter/Short diameter)” value ([1]; crystal ① of 10 selected, listed as 5) is reported as 1.1, the “Aspect ratio (Long diameter/Short diameter)” value ([1]; crystal ② of 10 selected, listed as 5) is reported as 2.7 and the “Aspect ratio (Long diameter/Short diameter)” value ([1]; crystal ③ of 10 selected, listed as 5) is reported as 3.2. The “Aspect ratio (Long diameter/Short diameter)” value ([1]; crystal ④ of 10 selected, listed as 5) was 2.9, the “Aspect ratio (Long diameter/Short diameter)” value ([1]; crystal ⑤ of 10 selected, listed as 5) was 4.7 and the “Aspect ratio (Long diameter/Short diameter)” value ([1]; crystal ⑥ of 10 selected, listed as 5) was 3.0. For the same compound, the “Aspect ratio (Long diameter/Short diameter)” value ([1]; crystal ⑦ of 10 selected, listed as 5) was 4.9, the “Aspect ratio (Long diameter/Short diameter)” value ([1]; crystal ⑧ of 10 selected, listed as 5) was 4.1 and the “Aspect ratio (Long diameter/Short diameter)” value ([1]; crystal ⑨ of 10 selected, listed as 5) was 1.6. The “Aspect ratio (Long diameter/Short diameter)” value ([1]; crystal ⑩ of 10 selected, listed as 5) was 3.8, the “Repose angle (degrees)” value ([2]; listed as 5) was 45.7 degrees and the “d [4, 3] (volume-based average particle size)” value ([3]; listed as 5) was 498 μm.
In the case of `O=C[C@H](O)[C@H](O)[C@H](O)[C@H](O)CO` [Test No. 4, D-allose], the “Aspect ratio (Long diameter/Short diameter)” value ([1]; crystal ① of 10 selected, listed as 4) is reported as 4.3, the “Aspect ratio (Long diameter/Short diameter)” value ([1]; crystal ② of 10 selected, listed as 4) is reported as 4.0 and the “Aspect ratio (Long diameter/Short diameter)” value ([1]; crystal ③ of 10 selected, listed as 4) is reported as 4.2. For the same compound, the “Aspect ratio (Long diameter/Short diameter)” value ([1]; crystal ④ of 10 selected, listed as 4) was 2.0, the “Aspect ratio (Long diameter/Short diameter)” value ([1]; crystal ⑤ of 10 selected, listed as 4) was 6.0 and the “Aspect ratio (Long diameter/Short diameter)” value ([1]; crystal ⑥ of 10 selected, listed as 4) was 1.1. The “Aspect ratio (Long diameter/Short diameter)” value ([1]; crystal ⑦ of 10 selected, listed as 4) was 3.9, the “Aspect ratio (Long diameter/Short diameter)” value ([1]; crystal ⑧ of 10 selected, listed as 4) was 8.1 and the “Aspect ratio (Long diameter/Short diameter)” value ([1]; crystal ⑨ of 10 selected, listed as 4) was 3.8. For the same compound, the “Aspect ratio (Long diameter/Short diameter)” value ([1]; crystal ⑩ of 10 selected, listed as 4) was 4.1, the “Repose angle (degrees)” value ([2]; listed as 4) was 42.3 degrees and the “d [4, 3] (volume-based average particle size)” value ([3]; listed as 4) was 588 μm.
For `O=C[C@H](O)[C@H](O)[C@H](O)[C@H](O)CO` [Test No. 9, D-allose], the “Aspect ratio (Long diameter/Short diameter)” value ([1]; crystal ① of 10 selected, listed as 9) was 6.2, the “Aspect ratio (Long diameter/Short diameter)” value ([1]; crystal ② of 10 selected, listed as 9) was 4.3 and the “Aspect ratio (Long diameter/Short diameter)” value ([1]; crystal ③ of 10 selected, listed as 9) was 5.7. The “Aspect ratio (Long diameter/Short diameter)” value ([1]; crystal ④ of 10 selected, listed as 9) was 3.0, the “Aspect ratio (Long diameter/Short diameter)” value ([1]; crystal ⑤ of 10 selected, listed as 9) was 3.5 and the “Aspect ratio (Long diameter/Short diameter)” value ([1]; crystal ⑥ of 10 selected, listed as 9) was 5.9. The “Aspect ratio (Long diameter/Short diameter)” value ([1]; crystal ⑦ of 10 selected, listed as 9) was 4.6, the “Aspect ratio (Long diameter/Short diameter)” value ([1]; crystal ⑧ of 10 selected, listed as 9) was 2.6 and the “Aspect ratio (Long diameter/Short diameter)” value ([1]; crystal ⑨ of 10 selected, listed as 9) was 3.6. The “Aspect ratio (Long diameter/Short diameter)” value ([1]; crystal ⑩ of 10 selected, listed as 9) was 1.9, the “Repose angle (degrees)” value ([2]; listed as 9) was 41.0 degrees and the “d [4, 3] (volume-based average particle size)” value ([3]; listed as 9) was 600 μm.
